We go through one molecule from paper PMC6225232, “Design, Synthesis and Biological Evaluation of Ligustrazine-Flavonoid Derivatives as Potential Anti-Tumor Agents” (Molecules : A Journal of Synthetic Chemistry and Natural …, 2018).

Structures are written as SMILES.

Type in all cases: cell-based, human
Assay [1] relates to HT-29. The assay can be described thus: MTT cytotoxicity assay, HT-29. Conditions: Homo sapiens, HT-29, 72 h. Here is the method:
(§1) Five kinds of tumor cell lines and one normal endothelial cell were routinely cultured respectively in RPMI 1640 medium supplemented with 10% (V/V) FBS and 1% (V/V) penicillin-streptomycin, incubated at 37 °C in a 5% CO2 containing incubator. The five tumor cell lines were plated onto 96-well sterile plates in 100 μL/well of medium at a density of 3.5 × 10^3 cells per well and incubated at 37 °C with 5% CO2 for 24 h. Then luteolin, baicalein, apigenin, chrysin, quercetin, fisetin, genistein, daidzein, naringenin, DDP and compounds 10–25 were added at various concentrations (5, 10, 20, 40, 50 μΜ). Each plate contained control group, blank group, drug group and positive group (DDP). After 72 h, 20 μL MTT in phosphate buffered saline (PBS, 5 mg/mL) was added to each well and the plates were incubated at 37 °C for 4 h, then removing the liquid and adding dimethyl sulfoxide (DMSO, 100 μL) to dissolve the MTT formazan. The optical density (OD) for each well was measured on a BIORAD 550 spectrophotometer plate reader (Bio-Gene Technology Ltd., Guangzhou, China) at a wavelength of 490 nm. All tests were carried out three times in parallel.

Assay [2] has as its system HepG-2. The assay can be described thus: MTT cytotoxicity assay, HepG-2. Conditions: Homo sapiens, HepG2, 72 h. As for the experimental part:
as §1

The test system of assay [3] is Bel-7402 cells. In words: Apoptosis analysis by flow cytometry, Annexin V-FITC/PI staining. Conditions: 72 h, control 5.4%. As for the experimental part: The Bel-7402 cells were plated onto 6-well sterile plates (4.8 × 10^4 cells/well) and placed at 37 °C with 5% CO2 for 24 h. Then compound 14 at various concentrations (0, 5, 10, 20 μΜ) was added. After 72 h, all cells were collected respectively with the right amount of trypsin (without EDTA) digestion. Then the cells were washed with cold PBS twice and centrifuged at 1000 rpm for 5 min. The harvested cells were resuspended in 200 μL binding buffer, which contained 10 μL Annexin V-FITC and PI. After avoided light reaction for 15 min, the cells were analyzed with a flow cytometer.
On the technique in general: A flow cytometer gives signals particle by particle.

Assay [4] deals with Bel-7402 cells. The assay can be described thus: Morphological analysis using Giemsa and DAPI staining. Conditions: 72 h. Here is the method: The Bel-7402 cells were plated onto 12-well sterile plates at a density of 2.4 × 10^4 cells per well and incubated at 37 °C in a 5% CO2 containing incubator. Then the cells were incubated in the presence of compound 14 at various concentrations (0, 10, 20, 40 μΜ) for 72 h. Then cells were washed with PBS twice, fixed with cold ethanol and 4% paraformaldehyde (pH = 7.4) for 10 min respectively and washed with PBS again. Then fixed cells were stained with 6% Giemsa solution or DAPI at the concentration of 1 mg/mL for 5 min in the dark. Finally, the cells washed with water and dried. The cell morphological changes were observed by fluorescent microscopy and images were captured by digital camera.

The subject of assay [5] is MCF-7. The assay can be described thus: MTT cytotoxicity assay, MCF-7. Conditions: Homo sapiens, MCF7, 72 h. Here is the method: as §1
For assay [6], the system named is HeLa. The assay can be described thus: MTT cytotoxicity assay, HeLa. Conditions: Homo sapiens, 72 h. As for the experimental part:
as §1
For orientation: Formazan colour is commonly taken as a measure of viable cells.

For assay [7], the system named is HUVEC-12. The assay can be described thus: MTT cytotoxicity assay using HUVEC-12 cell. Here is the method:
Five kinds of tumor cell lines and one normal endothelial cell were routinely cultured respectively in RPMI 1640 medium supplemented with 10% (V/V) FBS and 1% (V/V) penicillin-streptomycin, incubated at 37 °C in a 5% CO2 containing incubator.
The HUVEC-12 cell were seeded in 96-well plates (6.0 × 10^3 cells/ well), and incubated at 37 °C in a 5% CO2 containing incubator. After 24 h, the medium was replaced with fresh medium containing the compounds to be tested. Compounds 14, 19 and DDP were added in final concentrations ranging from 2.5 to 40 μM. Each plate contained control group, blank group and drug group. After 24 h, 20 μL MTT was added to each well and the plates were incubated at 37 °C for 4 h, then removing the liquid and adding dimethyl sulfoxide (DMSO) (100 μL) to dissolve the MTT formazan. The optical density (OD) for each well was measured on a BIORAD 550 spectrophotometer plate reader at a wavelength of 490 nm. All tests were carried out three times in parallel. The proliferation inhibition rates of tumor cells were calculated by {1 − [OD490 (Drug group) − OD490 (Blank group)]/[OD490 (Control group) − OD490 (Blank group)]} × 100%.

The test system of assay [8] is Bel-7402. The assay can be described thus: MTT cytotoxicity assay, Bel-7402. As for the experimental part:
as §1

As usually defined, the IC50 is the concentration at which inhibition is half-maximal. A higher IC50 goes with weaker potency in that assay. Regarding `Cc1nc(C)c(COc2ccc(/C=C/C(=O)c3c(O)cc(OCc4nc(C)c(C)nc4C)cc3OCc3nc(C)c(C)nc3C)cc2)nc1C` [Compound 14, (E)-1-(2-Hydroxy-4,6-bis((3,5,6-trimethylpyrazin-2-yl)methoxy)phenyl)-3-(4-((3,5,6-trimethylpyrazin-2-yl)methoxy)phenyl)prop-2-en-1-one], the IC50 in assay [1] is 31.9 ± 1.96 µM; in assay [2], 17.3 ± 0.47 µM; in assay [5] it was 29.8 ± 2.18 µM; in assay [6], 25.1 ± 1.8 µM; in assay [7] (Homo sapiens, MTT, 24 h) it was above 40 µM; in assay [8] (72 h), 10.7 ± 1.12 µM. This molecule also had an IC50 in assay [8] (Homo sapiens, Bel-7402, 72 h) of 10.5 ± 1.12 µM. Besides, the “apoptosis ratio (early and late)” value stood at 45.5% in assay [3] (Bel-7402, 10 μM) and 54.6% in assay [3] (Bel-7402, 20 μM). The “cell morphology, Giemsa staining” value in assay [4] (Bel-7402, 40 μM) was “mainly cell fragments rather than complete cells”. Besides, the “cell morphology, DAPI staining” value in assay [4] (Bel-7402, 10, 20, 40 μM) was “morphological features of apoptosis”. Moreover, the “Proliferation Rate (%) 2.5 μM” value in assay [7] (HUVEC-12, 24 h, 2.5 μM, negative = inhibition) is 1.62 ± 0.75%. The “Proliferation Rate (%) 5 μM” value in assay [7] (HUVEC-12, 24 h, 5 μM, negative = inhibition) turned out to be 1.99 ± 0.23%. For the same molecule, the “Proliferation Rate (%) 10 μM” value in assay [7] (HUVEC-12, 24 h, 10 μM, negative = inhibition) stood at 14.84 ± 1.41%. For the same molecule, the “Proliferation Rate (%) 20 μM” value in assay [7] (HUVEC-12, 24 h, 20 μM, negative = inhibition) was 16.71 ± 0.29%. The “Proliferation Rate (%) 40 μM” value in assay [7] (HUVEC-12, 24 h, 40 μM, negative = inhibition) is on record as −2.32 ± 1.37%.
